# Earlier results as cited in patent US20250339366A1, “AN ORODISPERSIBLE TABLET OF RIVAROXABAN” (INTAS PHARMACEUTICALS LTD., priority 2022, published 2025).
smiles,measurement,value
"O=C(NC[C@H]1CN(c2ccc(N3CCOCC3=O)cc2)C(=O)O1)c1ccc(Cl)s1 [Rivaroxaban, 5-Chloro-N-({(5S)-2-oxo-3-[4-(3-oxo-4-morpholinyl)phenyl]-1,3-oxzolidin-5-yl}methyl)-2-thiophene-carboxamide]",Solubility in water,practically insoluble in water
